Assay results as given in paper PMC8877291, “Design and Synthesis of Arylpiperazine Serotonergic/Dopaminergic Ligands with Neuroprotective Properties” (Molecules, 2022).
Several values for one entry are separate records, joined by “and”; a condition that tells them apart may be missing. Identical values can stand only once.

Assays:
[1] = molecular target: T1, serotonin 5-HT1A receptor (Homo sapiens, UniProt P08908); assay: 5-HT1A receptor radioligand competition binding ([3H]-8-Hydroxy-DPAT); conditions: for Ki ratio of the trimethylene and tetramethylene homologs at 5-HT1A: Ki of a (trimethylene) / Ki of b (tetramethylene) homolog, given as a/b; for Ki: human cloned receptor, HEK293 membranes, 1 nM [3H]-8-Hydroxy-DPAT, ± S.E.M., n = 3 in duplicate, read-out: Affinity Ki 5-HT1A
T1 construct: expressed in transfected cells
T1 sequence (P08908 1-422): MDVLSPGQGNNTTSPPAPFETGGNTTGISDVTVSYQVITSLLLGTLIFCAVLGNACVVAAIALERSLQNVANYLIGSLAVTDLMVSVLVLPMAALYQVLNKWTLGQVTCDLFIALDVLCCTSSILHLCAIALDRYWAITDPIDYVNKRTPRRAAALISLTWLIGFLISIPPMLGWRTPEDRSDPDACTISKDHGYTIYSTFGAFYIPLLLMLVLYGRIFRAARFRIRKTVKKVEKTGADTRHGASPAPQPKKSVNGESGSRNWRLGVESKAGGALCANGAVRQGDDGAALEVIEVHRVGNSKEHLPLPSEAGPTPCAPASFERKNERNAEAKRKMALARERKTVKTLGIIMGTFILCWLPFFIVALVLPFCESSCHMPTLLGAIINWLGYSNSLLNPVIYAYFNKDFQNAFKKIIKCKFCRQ
Description: (§1) As a first step, competition radioligand binding assays were carried out for all the compounds at the single concentration of 10 µM, on membrane preparations from stable cell lines heterologously expressing the human cloned 5-HT1A, 5-HT2A, or 5-HT7 receptors. […] For the affinity determination at dopamine receptor subtypes, membrane fractions of human dopamine D2s, D3, D1, and D5 receptor-expressing cells were used. They were co-incubated with [^3H]spiperone (for D2s and D3 receptor) or [^3H]SCH23390 (for D1 and D5 receptor) and appropriate concentrations of test compound for 120 min. Bound radioligand was separated from the free ligand using filtration. Radioactivity was measured by liquid scintillation counting.
The affinity of the compounds for serotonin 5-HT1A receptor was evaluated in membrane preparations from HEK293 cells stably expressing the human cloned receptor, following previously described procedures with minor modifications. Competition binding experiments were performed using 1 nM [^3H]-8-Hydroxy-DPAT (1 mCi/mL, PerkinElmer NET929250UC) as radioligand. Nonspecific binding was assessed in the presence of 10 µM serotonin. […] Assays were carried out in duplicate in 96-well assay plates, in assay buffer (50 mM Tris-HCl, 5 mM MgSO4, pH = 7.4). Assay mixtures were incubated at 37 °C for 120 min, followed by filtration through GF/C glass filter plates, and washed with ice-cold wash buffer (50 mM Tris-HCl, pH = 7.4).

dopamine D5 receptor = molecular target: T2, dopamine D5 receptor (Homo sapiens, UniProt P21918); assay: Dopamine D5 receptor competition binding ([3H]-SCH23390); conditions: HEK-293 membranes, [3H]-SCH23390 0.3 nM, mean (CI 95%), read-out: Affinity Ki D5
T2 construct: expressed in transfected cells
Description: as §1, with “The final compounds were tested for their affinity at serotonin 5-HT1A, 5-HT2A, and 5-HT7 receptors and at dopamine D1, D2, D3, and D5 receptors. As” for “As”
The affinity for dopamine D1 and D5 receptors was evaluated in membrane fractions of HEK-293 cells stably expressing the human dopamine D1 or D5 receptor. HEK-293-D1 cells were cultured in DMEM/F12 (15 mM HEPES, 1.2 g/L NaHCO3) with 10% (v/v) FBS and 1% (v/v) L-glutamine. HEK-293-D5 cells were cultured in DMEM/F12 (with L-glutamine, 1.2 g/L NaHCO3) with 20% (v/v) FBS. Preparation of membrane fractions and radioligand competition assays were performed as previously described. Briefly, membrane fractions were co-incubated with [^3H]-SCH23390 (0.3 nM) and different concentrations of test compound for 120 min at room temperature. Fluphenazine (100 µM) was used to determine non-specific binding and as reference compound.
Data of at least three independent experiments in triplicate were analyzed using GraphPad Prism 8.1 (San Diego, CA, USA). Binding curves were fitted to a non-linear regression model (one-site competition). Ki values were calculated from IC50 values using the Cheng–Prusoff equation. The statistical calculations were performed on –log(Ki).

[2] = Stability assay in rat liver microsomes; assay type: in vitro ADME; conditions: NADPH-regenerating system; for remaining at 30 min, 10 μM: pH 7.4, rat liver microsomes, 30 min incubation, read-out: Metabolic Stability (percentage of recovery of the parent compound); for in vitro metabolic stability (in words): rat microsomes, 30 min
Description: To evaluate the susceptibility to first-pass oxidative metabolism, the leading cause of metabolic degradation in vivo [17] the target compounds were incubated with rat liver microsomes. The turnover of the parent compound was assessed as the percentage of the parent compound recovered after 30 min of incubation with microsomes in the presence of an NADPH-regenerating system.
Test compounds were pre-incubated at 37 °C with rat liver microsomes (Tebu-Bio, Milan, Italy) (1.0 mg/mL microsomal protein) at 10 μM final concentration in 100 mM potassium phosphate buffer (pH 7.4) for 10 min. Metabolic reactions were initiated by the addition of the NADPH regenerating system (containing 10 mM NADP, 50 mM glucose-6-phosphate, and 10 unit/mL glucose-6-phosphate dehydrogenase, final glucose-6-phosphate dehydrogenase concentration, 1 unit/mL). After 30 min incubation, the reaction mixture was quenched by adding an equal volume of cold acetonitrile containing the internal standard. A test compound incubated with microsomes without NADPH regenerating system was included. Quenched samples were centrifuged at 4500 rpm for 15 min and the supernatants were injected for quantification analysis. Samples (100 μL) were analyzed by using an Agilent 1260 Infinity Binary LC System equipped with a diode array detector (Open Lab software was used to analyze the chromatographic data) and a Phenomenex Gemini C-18 column (250 mm × 4.6 mm, 5 μm particle size). The samples were eluted using CH3CN/20 mM ammonium formate pH 5.5 (7:3, v/v) as eluent (volumetric flow rate =1 mL/min). Concentrations were quantified by measuring the area under the peak.
The percentage of the parent compound remaining after a 30-min incubation was calculated according to the equation:% of parent compound remaining after 30 min = Cparent/Ccontrol × 100(1) where Cparent is ligand concentration after incubation with microsome fraction and NADPH regenerating system and Ccontrol is ligand concentration after incubation with microsome fraction only.

dopamine D3 receptor = dopamine D3 receptor (Homo sapiens, UniProt P35462); assay: Dopamine D3 receptor competition binding ([3H]spiperone)
Chain of dopamine D3 receptor (P35462 whole entry): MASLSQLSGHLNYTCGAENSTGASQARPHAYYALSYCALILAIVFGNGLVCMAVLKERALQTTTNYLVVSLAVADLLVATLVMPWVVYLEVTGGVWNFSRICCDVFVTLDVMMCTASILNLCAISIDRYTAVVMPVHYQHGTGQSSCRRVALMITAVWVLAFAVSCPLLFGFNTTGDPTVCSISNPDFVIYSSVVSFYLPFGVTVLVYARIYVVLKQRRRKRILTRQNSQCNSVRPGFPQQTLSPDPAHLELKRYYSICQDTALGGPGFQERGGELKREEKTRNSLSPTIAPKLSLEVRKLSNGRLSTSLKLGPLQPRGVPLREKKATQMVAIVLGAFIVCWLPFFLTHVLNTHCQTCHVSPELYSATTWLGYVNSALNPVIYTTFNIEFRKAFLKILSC
Description: Competition binding experiments at dopamine D2s and D3 receptor were performed to determine the affinity of the compounds. […] Membrane preparations of transfected CHO-K1 cells stably expressing the human D2s or D3 receptor were performed according to Bautista-Aguilera et al. [26]. The competition binding experiments were conducted as previously reported [26, 27]. Briefly, membrane fractions (D2sR: 25 µg/200 µL; D3R: 20 µg/200 µL) were incubated with [^3H]spiperone (0.2 nM) and test compound for 120 min at room temperature. […] Non-specific binding was determined in the presence of 10 µM haloperidol. Haloperidol was also used as reference compound. Separation of the bound ligand from the free ligand was conducted by filtration through GF/B filters using deionized water.

T2 sequence (P21918 whole entry): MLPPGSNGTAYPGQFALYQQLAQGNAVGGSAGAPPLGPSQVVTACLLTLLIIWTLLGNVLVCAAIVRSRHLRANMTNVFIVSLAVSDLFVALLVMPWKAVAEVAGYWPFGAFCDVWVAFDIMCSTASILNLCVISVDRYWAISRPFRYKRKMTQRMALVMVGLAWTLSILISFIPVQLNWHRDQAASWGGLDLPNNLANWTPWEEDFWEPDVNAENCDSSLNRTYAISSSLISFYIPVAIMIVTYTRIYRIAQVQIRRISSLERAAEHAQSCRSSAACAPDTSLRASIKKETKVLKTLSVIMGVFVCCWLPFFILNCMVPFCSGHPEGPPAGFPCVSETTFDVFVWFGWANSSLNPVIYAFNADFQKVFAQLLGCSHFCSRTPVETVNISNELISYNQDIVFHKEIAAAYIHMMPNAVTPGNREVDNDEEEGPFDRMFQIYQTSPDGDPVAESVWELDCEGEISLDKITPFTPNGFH

SMILES | Ki ratio of the trimethylene and tetramethylene homologs at 5-HT1A [1] | Ki [1] | Ki (dopamine D5 receptor) [nM] | remaining at 30 min, 10 μM [2] [%] | Ki (dopamine D3 receptor) [nM] | in vitro metabolic stability (in words) [2]
CC1Oc2ccc(OCCCN3CCN(c4ncccc4-c4ccncc4)CC3)cc2NC1=O (centres unmarked) [Compound 8a, 6-(3-(4-([3,4’-Bipyridin]-2-yl)piperazin-1-yl)propoxy)-2-methyl-2H-benzo[b][1,4]oxazin-3(4H)-one] | 0.7 | < 17.6 nM and 13.1 nM | 7410 | 4 | 1220 | 
CC1Oc2ccc(OCCCCN3CCN(c4ncccc4-c4ccncc4)CC3)cc2NC1=O (centres unmarked) [Compound 8b, 6-(4-(4-([3,4’-Bipyridin]-2-yl)piperazin-1-yl)butoxy)-2-methyl-2H-benzo[b][1,4]oxazin-3(4H)-one] |  | < 17.6 nM and 17.6 nM | 8200 | 14 | 691 | 
COc1ccc(-c2cc(F)ccc2N2CCN(CCCCn3ncc(=O)n(C)c3=O)CC2)cc1 [Compound 9b, 2-(4-(4-(5-Fluoro-4’-methoxy-[1,1’-biphenyl]-2-yl)piperazin-1-yl)butyl)-4-methyl-1,2,4-triazine-3,5(2H,4H)-dione] |  | 23.9 ± 4.9 nM | 222 | 45 | > 10000 | 
Cn1c(=O)cnn(CCCN2CCN(c3ccc(F)cc3-c3ccc(C#N)cc3)CC2)c1=O [Compound 10a, 5’-Fluoro-2’-(4-(3-(4-methyl-3,5-dioxo-4,5-dihydro-1,2,4-triazin-2(3H)-yl)propyl)piperazin-1-yl)-[1,1’-biphenyl]-4-carbonitrile] |  | 1090 ± 154 nM | 180 | 5 | > 10000 | 
Cn1c(=O)cnn(CCCCN2CCN(c3ccc(F)cc3-c3ccc(C#N)cc3)CC2)c1=O [Compound 10b, 5’-Fluoro-2’-(4-(4-(4-methyl-3,5-dioxo-4,5-dihydro-1,2,4-triazin-2(3H)-yl)butyl)piperazin-1-yl)-[1,1’-biphenyl]-4-carbonitrile] |  | 43.4 ± 6.2 nM | 101 | 26 | > 10000 | borderline stability value
Cn1c(=O)cnn(CCCN2CCN(c3ncccc3-c3ccncc3)CC2)c1=O [Compound 11a, 2-(3-(4-([3,4’-Bipyridin]-2-yl)piperazin-1-yl)propyl)-4-methyl-1,2,4-triazine-3,5(2H,4H)-dione] | 52 | 269 ± 18 nM | > 10000 | 4 | > 10000 | 
Cn1c(=O)cnn(CCCCN2CCN(c3ncccc3-c3ccncc3)CC2)c1=O [Compound 11b, 2-(4-(4-([3,4’-Bipyridin]-2-yl)piperazin-1-yl)butyl)-4-methyl-1,2,4-triazine-3,5(2H,4H)-dione] |  | < 17.6 nM and 5.19 nM | > 10000 | 3 | > 10000 | 
Cc1cc(=O)oc2cc(OCCCN3CCN(c4ncccc4-c4ccncc4)CC3)ccc12 [Compound 12a, 7-(3-(4-([3,4’-Bipyridin]-2-yl)piperazin-1-yl)propoxy)-4-methyl-2H-chromen-2-one] | 3.7 | 41.5 ± 3 nM | > 10000 | 19 | 1080 | borderline stability value
Cc1cc(=O)oc2cc(OCCCCN3CCN(c4ncccc4-c4ccncc4)CC3)ccc12 [Compound 12b, 7-(4-(4-([3,4’-Bipyridin]-2-yl)piperazin-1-yl)butoxy)-4-methyl-2H-chromen-2-one] |  | < 17.6 nM and 11.3 nM | 2730 | 14 | 424 | 
